Measured values taken from ChEMBL document CHEMBL1136600, “Functional expression and characterization of EryA, the erythritol kinase of Brucella abortus, and enzymatic synthesis of L-erythritol-4-phosphate” (Bioorg Med Chem Lett, 2003).

How the values were obtained:
Brucella abortus = assay: Kinetic parameter against EryA, erythritol kinase of brucella abortus expressed in Escherichia coli
[1] = system: Propionibacterium acidipropionici; assay: Kinetic parameters against EryA, erythritol kinase from Propionibacterium pentosaceum
[2] = Inhibition of 4-diphosphocytidyl-2-C-methyl-d-erythritol (CDP-ME) synthase

Row | SMILES | Km (Brucella abortus) [µM] | k cat (Brucella abortus) [s⁻¹] | Km [1] [µM] | IC50 [2] [µM]
1 | Nc1ncnc2c1ncn2[C@@H]1O[C@H](COP(=O)(O)OP(=O)(O)OP(=O)(O)O)[C@@H](O)[C@H]1O | 9800 | 230 | 4800 | –
2 | OC[C@@H](O)[C@@H](O)CO | 260 | 230 | 880 | –
3 | C[C@@](O)(CO)[C@@H](O)COP(=O)(O)O | – | – | – | 1360
